# Where two headings read alike, the source gives them in different places.
# Experiments:
# sigma receptors [1] = experiment: sigma receptor binding, [^3 H]di(2-tolyl)guanidine (DTG), guinea pig brain membranes; conditions: inhibition of binding at 10 μM; [^3 H]DTG approximately 4 nM, 25° C., 90 min
# Protocol: (§1) Brain tissue was prepared from male Hartley guinea pigs (Hazelton Labs, Denver, Pa.) which were anesthetized with CO2 and sacrificed by decapitation. All animal care and use procedures were in accord with the "Guide for the Care and Use of Laboratory Animals" (NIH Publ. No. 86-23, 1985). Homogenization was performed in 10 volumes (wt/vol) of 0.32 M sucrose with a Brinkmann Polytron at setting 5, 30 sec. The homogenate was centrifuged at 900×g for 10 min at 4° C., and the supernatant was collected and centrifuged at 22,000×g for 20 min at 4° C. The pellet was resuspended in 10 volumes of Tris-HCl buffer (50 mm, pH 7.4), incubated at 37° C. for 30 min, and centrifuged at 22,000×g for 20 min at 4° C. Following this, the pellet was resuspended in Tris buffer and frozen in 5-10 mL aliquots corresponding to a tissue concentration of 100 mg/ml, at -70° C. Binding characteristics of the membranes were stable for at least one month when stored at -70° C.
# On the day of the assay, membrane aliquots were thawed, resuspended in fresh Tris-HCl buffer and stored on ice until use. […]
# Following addition of scintillation cocktail, samples were allowed to equilibrate for at least 4 hr. The amount of bound radioactivity was determined by liquid scintillation spectrometry using a Beckman LS 5000 TA liquid scintillation counter with an efficiency for tritium of approximately 60%. […]
# (§2) Scatchard parameters and inhibition constants (Ki values) for the binding of test compounds were also calculated using the EBDA/LIGAND program (McPherson, J. Pharmacol. Meth. 1985, 14, 213-228), purchased from Elsevier/Biosoft, Inc. The Ki values are expressed as the mean or the mean ±SEM of at least two separate determinations performed in triplicate.
# sigma receptors [2] = target: T1, sigma receptors (Cavia porcellus, UniProt Q60492); experiment: sigma receptor binding, [^3 H]-(+)-pentazocine, guinea pig brain membranes; conditions: for inhibition at 10 µM: 2.5 h, inhibition of binding at 10 μM, [^3 H]-(+)-pentazocine approximately 0.5 nM, read-out: [^3 H] (+)-Pentazocine Percent Inhibition
# T1 construct: Brain tissue was prepared from male Hartley guinea pigs; from tissue; host or cells: guinea pig brain membranes
# T1 sequence (Q60492 whole entry): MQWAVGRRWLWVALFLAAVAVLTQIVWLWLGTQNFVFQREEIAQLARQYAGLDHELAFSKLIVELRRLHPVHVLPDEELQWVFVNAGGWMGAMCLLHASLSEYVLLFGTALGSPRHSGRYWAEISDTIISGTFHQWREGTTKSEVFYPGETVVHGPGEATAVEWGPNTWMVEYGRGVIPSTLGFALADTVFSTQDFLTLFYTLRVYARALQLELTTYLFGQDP
# Protocol: as §1
# On the day of the assay, membrane aliquots were thawed, resuspended in fresh Tris-HCl buffer and stored on ice until use. Each assay tube contained 100 μL of [^3 H]-(+)-pentazocine at a final concentration of approximately 0.5 nM or 100 μL of [^3 H)di(2-tolyl)guanidine (DTG) at a final concentration of approximately 4 nM, 100 μL of various concentrations of the compounds of interest, 500 μL of the tissue suspension and 300 μL of buffer to a final assay volume of 1 mL and a final tissue concentration of approximately 8 mg/tube, corresponding to approximately 0.15 mg protein/tube. Non-specific binding was defined by addition of a final concentration of 1 μM haloperidol to blank tubes for [^3 H](+)-pentazocine assay or by addition of a final concentration of 10 μM haloperidol to blank tubes for [^3 H]DTG assay. All tubes were incubated at 37° C. for 150 min in the [^3 H](+) -pentazocine assay or at 25° C. for 90 min in the [^3 H]DTG assay before termination of the reaction by rapid filtration over Whatman GF/B glass fiber filters that were presoaked in a solution of 0.5% polyethyleneimine for at least 1 hr prior to use. Filters were washed with three 4 ml volumes of cold Tris-HCl buffer.
# Following addition of scintillation cocktail, samples were allowed to equilibrate for at least 4 hr. The amount of bound radioactivity was determined by liquid scintillation spectrometry using a Beckman LS 5000 TA liquid scintillation counter with an efficiency for tritium of approximately 60%. The results are reported as a percent (%) inhibition of binding at 10 μM.
# as §2
# [3] = test system: apomorphine-induced climbing; experiment: apomorphine-induced climbing assay; format: in vivo, mouse (male, Swiss-Webster); conditions: Mus musculus, ip; test compound i.p., apomorphine 5.5 mg/kg s.c.; rated 20-30 minutes post drug treatment; Dunnett's Test P<0.05; read-out: minimal effective dose (MED) for inhibition of apomorphine-induced climbing
# Protocol: (§3) The compound of Example 4 was tested in vivo in the apomorphine-induced climbing assay and the apomorphine-induced stereotypy assay using the following procedures:
# (§4) Male, Swiss-Webster mice (Taconic Farms, Germantown, N.Y.) weight 20-30 grams were grouped housed in colony facilities for a minimum of two days prior to testing. The colony facility was maintained on a 12 hour light/dark cycle (light: 0600-1800 hours) with water and Agway Prolab 100 rat chow available ad libitum. Each mouse was given an injection of test compound i.p. followed immediately by a s.c. injection of apomorphine 5.5 mg/kg or vehicle. All drugs were administered in a volume of 10 ml/kg body weight. The mice were then placed in individual cylindrical stainless steel climbing cages; 14.5 cm tall, 12 cm in diameter, with walls consisting of 1/16" O.D. bars spaced 0.8-1.0 cm apart, and were allowed to habituate to this environment for 20 minutes. […] Briefly, a (0) was scored for absence of any stereotypic behavior, infrequent stereotypic movements were scored as (1) , a (2) was scored for permanent sniffing and a score of (3) indicated intense and continuous stereotypic behavior. Treatment means for the 10 minute totals were calculated for climbing and stereotypy. […] A minimal effective dose (MED) for inhibition was determined for each parameter based on these analyses.
# [4] = test system: apomorphine-induced stereotypy; experiment: apomorphine-induced stereotypy assay; format: in vivo, mouse (male, Swiss-Webster); conditions: test compound i.p., apomorphine 5.5 mg/kg s.c.; rated 20-30 minutes post drug treatment
# Protocol: as §3, §4
# [5] = mean or mean ±SEM of at least two separate determinations performed in triplicate, 37° C., 150 min, read-out: [^3 H] (+)-Pentazocine Ki
Structure (SMILES),"inhibition at 10 µM (sigma receptors [2]; 37° C., 150 min) [%]",Ki (sigma receptors [2]; [5]) [nM],other results
"C[C@@H]1CCN(C)[C@@H](C)[C@]1(C)CCCO (relative stereo) [Example 1b, 3-(1,2,3,4-tetramethyl-3-piperidine)propanol]",42,,[3H]DTG Percent Inhibition (sigma receptors [1]): 39 percent (%)
"C[C@@H]1CCN(C)[C@@H](C)[C@]1(C)CCCOCC1CC1 (relative stereo) [Example 1c, 3-[3-(cyclopropylmethoxy)propyl]1,2,3,4-tetramethylpiperidine]",94,,Ki (sigma receptors [2]): 197 ± 32 nM
"C[C@@H]1CCN(Cc2ccccc2)[C@@H](C)[C@]1(C)CCCOCC1CC1 (relative stereo) [Example 4, 3-[3-(cycloprolmethoxy)propyl]-2,3,4-trimethyl-1-(phenylmethyl)piperidine]",,3.7 ± 0.4,minimal effective dose [3]: 167 µmol/kg; effect on stereotypic behavior [4]: did not affect stereotypic behavior
C=CCOCCC[C@]1(C)[C@H](C)CCN(C)[C@H]1C (relative stereo) [Example 6],89,559 ± 64,
C#CCOCCC[C@]1(C)[C@H](C)CCN(C)[C@H]1C (relative stereo) [Example 7],76,,
C=CCOCC[C@]1(C)[C@H](C)CCN(Cc2ccccc2)[C@H]1C (relative stereo) [Example 9],99,300 ± 65,
"COCCC[C@]1(C)[C@H](C)CCN(C)[C@H]1C (relative stereo) [Example 13, 3-(3-methoxypropyl)-1,2,3,4-tetramethylpiperidine]",,7670,

# Continued, in another order:
"inhibition at 10 µM (sigma receptors [2]; 37° C., 150 min) [%]",Ki (sigma receptors [2]; [5]) [nM],Structure (SMILES),other results
,5 ± 0.2,"C[C@@H]1CCN(C)[C@@H](C)[C@@H]1CCCOCC1CC1 (relative stereo) [Example 2c, 3-[3-(cyclopropylmethoxy)propyl]1,2,4-trimethylpiperidine]",
,16700,"C[C@@H]1CCN[C@@H](C)[C@]1(C)CCCO (relative stereo) [Example 3c, 2.3.4-trimethyl-3-piperidinepropanol]",[3H]DTG Percent Inhibition (sigma receptors [1]): 23 percent (%)
99,45 ± 2,"CCCN1CC[C@@H](C)[C@@](C)(CCCOCC2CC2)[C@@H]1C (relative stereo) [Example 3f, 3-[3-(cyclopropylmethoxy)propyl]-2,3,4-trimethyl-1-propylpiperidine]",
17,,"CC(C)N1CC[C@@H](C)[C@@](C)(CCCO)[C@@H]1C (relative stereo) [Example 5a, 2,3. 4-trimethyl-l-(1-methylethyl)-3-piperidinepropanol]",[3H]DTG Percent Inhibition (sigma receptors [1]): 30 percent (%)
91,435 ± 17,"CC(C)N1CC[C@@H](C)[C@@](C)(CCCOCC2CC2)[C@@H]1C (relative stereo) [Example 5b, 3-[3-(cyclopropylmethoxy)propyl]-2,3,4-trimethyl-1-(1-methylethyl)piperidine]",
85,,"C[C@@H]1CCN(Cc2ccccc2)[C@@H](C)[C@]1(C)CCO (relative stereo) [Example 8b, 2,3,4-trimethyl-1-(phenylmethyl)-3-piperidineethanol]",
